Source: patent publication US5766875A, “Metabolic monitoring of cells in a microplate reader” (priority 1995, dated 1998)
Like-named read-outs stand apart in the source and are kept apart here.

Columns and labels:
TF-1 cells [1] = assay: Effect of cell-affecting agents on activation of TF-1 cells by GM-CSF, extracellular acidification rate (Example 9); format: cell-based; conditions: for inhibition at 10 µM: Homo sapiens
Method: The cell effects of beta-Maleimido proprionic acid (NMPA), N-Ethyl maleimide (NEM), Ferricyanide (Fe3 CN)^-3 (i.e. FeCN) and Cupric o-phenanthroline (Cu o-Ph) on the activation of TF-1 cells by GM-CSF was measured by a procedure similar to that used in Example 5. TF-1 cells were starved overnight in media lacking GM-CSF. The cells were washed twice and re-suspended in simple indicator medium at 1×10^6 cells/ml. The simple indicator medium contained one of the following test substances: NMPA, MEM, FeCN or Cu o-Ph at the tested concentration. A control test, which had no cell-affecting agent, was run in parallel. The cells in the simple indicator medium with or without cell-affecting agents were warmed to 37° C. for 20 minutes prior to the addition of recombinant human GM-CSF (obtained from Sandoz/Schering-Plough Corp.) to a final concentration of 0.1 ng/ml, and the extracellular acidification rate was measured by monitoring OD560/OD420 at 37° C. for 45 minutes. Additionally, a set of cells were mock treated with an equal volume of simple indicator medium but without any GM-CSF as a control for GM-CSF activation. The acidification rates were calculated from the slope of log(OD560/OD420) from 20 to 40 minutes after addition of the GM-CSF.
Generally, 0.1 ng/ml of GM-CSF caused a 100-150% increase in extracellular acidification rate. The cell-affecting agents inhibited the response of extracellular acidification to GM-CSF. Thus, these cell-affecting agents are inhibitory cell-affecting agents, while GM-CSF is a stimulatory cell-affecting agent. The measurements were made in duplicate and results are shown below as % inhibition of the response to GM-CSF, relative to control cells which received GM-CSF only.

mammalian cells = conditions: cited from earlier work
[2] = Apparent pH change with temperature of buffering systems as indicated by phenol red; format: physicochemical; conditions: phenol red pH indicator, 50 mM total buffer
TF-1 cells [3] = assay: Extracellular acidification by TF-1 cells in response to GM-CSF (Example 5); format: cell-based
Method: The results from using a preferred simple media (shown in Table 2) to monitor extracellular acidification by TF-I cells is shown in FIG. 13. The TF-1 cells and are grown in complete RPMI 1640 medium with 2.0 mM L-glutamine (Catalogue No. 430-1800, GIBCO-BRL, Grand Island, N.Y.) with added […], 50 μM β-mercaptoethanol, 1000 units/liter penicillin and 1.0 mg/liter streptomycin, 10% fetal bovine serum and Ing/ml GM-CSF (human Granulocyte/Macrophage--Colony Stimulating Factor) under 5% CO2 at 37° C.
The cells are maintained at between 5×10^5 cells per ml and 5×10^6 cells per ml. […]
The extracellular acidification measurements were done in a flat-bottom, 96-well polystyrene microplate placed in a THERMOmax™ microplate reader, set to 37° C. […] Extracellular acidification was measured with Automix™ on, and with SOFTMAX® software (Molecular Devices Corporation, Menlo Park, Calif.) and an Apple® Macintosh™ computer were used to kinetically monitor the optical density changes. The ratio of optical density at 560 nanometers/optical density at 420 nanometers, as a function of time, was measured by using the ODλ1 -ODλ2 feature of a THERMOmax™ microplate reader modified to measure ODλ1 /ODλ2 instead of ODλ1 -ODλ2 (as described previously). The log10 of the ratio of optical densities at 560 nanometers/optical density at 420 nanometers was calculated and plotted as a function of time. […]

TF-1 cells [4] = conditions: TF-1 cells in culture; earlier work; cited from earlier work

## CCN1C(=O)C=CC1=O [NEM, N-Ethyl maleimide]
TF-1 cells [1]; TF-1, read-out: % Inhibition GM-CSF Response
  inhibition at 10 µM: 98%

## O=C(O)CCN1C(=O)C=CC1=O [NMPA, beta-Maleimido proprionic acid]
TF-1 cells [1]; 0.1 ng/ml GM-CSF, extracellular acidification
  inhibitory effects on GM-CSF activation (in words): weak in comparison to NEM and Cu o-Ph
TF-1 cells [1]; TF-1, 10 μM, 0.1 ng/ml GM-CSF, duplicate, read-out: % Inhibition GM-CSF Response
  inhibition at 10 µM: 3%

## O=S1(=O)OC(c2ccc(O)cc2)(c2ccc(O)cc2)c2ccccc21 [Phenol Red, phenolsulfonephthalein]
Mammalian cells
  toxicity toward most mammalian cells: minimal toxicity

## NC(CO)(CO)CO [TRIS, tris[Hydroxymethyl]aminomethane]
[2]; equilibrium with CO2 in air
  apparent change in pH with change in temperature: -14.93 millipH/°C.
[2]; with 1.0M NaCl added
  apparent change in pH with change in temperature: -13.36 millipH/°C.

## Cupric o-phenanthroline [Cu o-Ph]
TF-1 cells [1]; 25 μM, 0.1 ng/ml GM-CSF, duplicate
  % Inhibition GM-CSF Response: 43%

## GM-CSF: human Granulocyte/Macrophage--Colony Stimulating Factor
TF-1 cells [3]
  saturating levels (no observance of a dose response): greater than 0.05 ng/ml
TF-1 cells [4]
  concentration giving the optimum proliferation rate: approximately 1 ng/ml
TF-1 cells [1]; 0.1 ng/ml GM-CSF, 37° C.
  increase in extracellular acidification rate: 100-150%
